The values that follow come from US20220267321A1, “AZAINDOLE PYRAZOLE COMPOUNDS AS CDK9 INHIBITORS” (MEDSHINE DISCOVERY INC., priority 2019, published 2022).

In one data set the target is T1, CDK1/CyclinB1 (Homo sapiens, UniProt P06493).
T1 construct: purchased Promega
As to the kind of experiment: In vitro CDK1/CyclinB1 enzyme activity test (ADP-Glo). To be noted: 25 μM ATP, 25° C., 120 minutes. The data set is classed as biochemical. Here is the method:
CDK1/CyclinB1 kinase detection kit was purchased from Promega. Nivo multi-label analyzer (PerkinElmer).
(§1) Using the kinase buffer in the kit to dilute the enzyme, substrate, adenosine triphosphate and inhibitor.
The compound to be tested was diluted 5-fold to the 8th concentration with a discharge gun, that is, diluted from 50 μM to 0.65 nM, with a DMSO concentration of 5%, and replicated. Add 1 μL of each inhibitor concentration gradient, 2 μL CDK1/CyclinB1 enzyme (12.5 ng), 2 μL mixture of substrate and ATP (25 μM adenosine triphosphate, 0.2 μg/μL substrate) into the microplate, and the final concentration gradient of the compound is 10 μM dilute to 0.13 nM. The reaction system was placed at 25° C. for 120 minutes. After the reaction, add 5 μL of ADP-Glo reagent to each well, and continue the reaction at 25° C. for 40 minutes. After the reaction, add 10 μL of kinase detection reagent to each well. After reacting at 25° C. for 30 minutes, use a multi-label analyzer to read chemiluminescence. The integration time is 0.5 seconds.
Table 1 provides the CDK1/CyclinB1 enzymatic inhibitory activity of the compounds of the present invention.
A general note: ADP-Glo turns the ADP formed in a reaction into a luminescent signal.

Data set [1] deals with MV4-11 acute myeloid leukemia xenograft (CDX). As to the kind of experiment: In vivo drug efficacy study (1), MV4-11 CDX model. The conditions noted are these: 15 mg/kg injected weekly; for Tumor Volume Day 0: Day 0 (start of administration). The method, then:
In vivo drug efficacy experiments were performed on human-derived tumor cell line-based xenograft (CDX) BALB/c nude mice derived from patients with MV4-11 acute myeloid leukemia subcutaneously implanted.
(§2) Female 6- to 8-week old BALB/c nude mice which weighed about 18-22 g were kept in separate ventilated cages (3 mice per cage) in a special pathogen-free environment. All the cages, matts and water were disinfected before use. All the animals had free access to standard certified commercial laboratory diet. A total of 30 mice were purchased from Shanghai Lingchang biological science and technology Co., LTD. for study. Each mouse was subcutaneously implanted with tumor cells in the right next abdomen (10×10^6 in 0.2 mL of phosphate buffer) for tumor growth. The administration started when the average tumor volume reached approximately 110 cubic millimeters. The test compound was injected weekly at a dose of 15 mg/kg. The tumor volumes were measured with a two-dimensional caliper twice a week, and the volumes were expressed in cubic millimeters and calculated by the formula: V=0.5a×b^2, where a and b were the major diameter and the minor diameter of the tumor, respectively. Antitumor efficacy was determined by dividing an average increase of the tumor volumes of the animals treated with the compounds by an average increase of the tumor volumes of the untreated animals.

For data set [2] the following is noted: background; cited from earlier work.
The next data set deals with T2, CDK2/CyclinE1 (Homo sapiens, UniProt P24941).
T2 construct: purchased Promega
Kind of data set: In vitro CDK2/CyclinE1 enzyme activity test (ADP-Glo). The data set is classed as biochemical. The conditions noted are these: 150 μM ATP, 25° C., 60 minutes. The method, then:
CDK2/CyclinE1 kinase detection kit was purchased from Promega. Nivo multi-label analyzer (PerkinElmer).
as §1
The compound to be tested was diluted 5-fold to the 8th concentration with a discharge gun, that is, diluted from 50 μM to 0.65 nM, with a DMSO concentration of 5%, and replicated. Add 1 μL of each inhibitor concentration gradient, 2 μL CDK2/CyclinE1 enzyme (2 ng), 2 μL mixture of substrate and ATP (150 μM adenosine triphosphate, 0.1 μg/μL substrate) to the microplate, and the final concentration gradient of the compound is 10 μM dilution to 0.13 nM. The reaction system was placed at 25° C. for 60 minutes. After the reaction, add 5 μL of ADP-Glo reagent to each well, and continue the reaction at 25° C. for 40 minutes. After the reaction, add 10 μL of kinase detection reagent to each well. After reacting at 25° C. for 30 minutes, use a multi-label analyzer to read chemiluminescence. The integration time is 0.5 seconds.
Table 1 provides the CDK2/CyclinE1 enzymatic inhibitory activity of the compounds of the present invention.

For data set [3] the following is noted: clinical research, background; cited from earlier work.
A further data set concerns MV-4-11 cells. As to the kind of experiment: In vitro cell activity test, MV-4-11 proliferation (CellTiter-Glo). The format is cell-based. To be noted: Homo sapiens, MV4-11, 72 h, 3 days incubation. Here is the method:
IMDM medium, fetal bovine serum, penicillin/streptomycin antibiotics were purchased from Promega (Madison, Wis.). The MV-4-11 cell line was purchased from the Cell Bank of the Chinese Academy of Sciences. Nivo multi-label analyzer (PerkinElmer).
Plant MV-4-11 cells in a white 96-well plate, 80 μL of cell suspension per well, which contains 6000 MV-4-11 cells. The cell plate was cultured overnight in a carbon dioxide incubator.
The compound to be tested was diluted 5-fold to the 8th concentration with a discharge gun, that is, diluted from 2 mM to 26 nM, and replicated. Add 78 μL of culture medium to the middle plate, and then transfer 2 μL of each well of the gradient dilution compound to the middle plate according to the corresponding position, and transfer 20 μL of each well to the cell plate after mixing. The final concentration of the compound is 10 μM to 0.13 nM. The cell plate was placed in a carbon dioxide incubator for 3 days.
Add 25 μL of Promega CellTiter-Glo reagent per well to the cell plate and incubate at room temperature for 10 minutes to stabilize the luminescence signal. Use PerkinElmer Nivo multi-label analyzer to read.
A general note: Cellular ATP, detected with luciferase, serves as a proxy for viable cell number.

Data set [4] deals with MV4-1 acute myeloid leukemia xenograft (CDX). Kind of data set: In vivo drug efficacy study (2), MV4-11 CDX model. The conditions noted are these: 10 mg/kg injected weekly; for Tumor Volume Day 0: Day 0 (start of administration). Here is the method: In vivo drug efficacy experiments were performed on human-derived tumor cell line-based xenograft (CDX) BALB/c nude mice derived from patients with MV4-1 acute myeloid leukemia subcutaneously implanted.
as §2, with “36” for “30”, “121” for “110”, “10” for “15”

A further data set addresses T3, CDK9/CyclinT1 (Homo sapiens, UniProt P50750).
T3 construct: purchased Carna
Kind of data set: In vitro CDK9/CyclinT1 enzyme activity test (ADP-Glo). The data set is classed as biochemical. To be noted: 100 μM ATP, 25° C., 120 minutes. Here is the method:
CDK9/CyclinT1 kinase was purchased from Carna, ADP-Glo detection kit was purchased from Promega, and PKDTide substrate and kinase reaction buffer were purchased from Signalchem. Nivo multi-label analyzer (PerkinElmer).
The kinase buffer in the kit was used to dilute the enzyme, substrate, adenosine triphosphate and inhibitors.
The compound to be tested was diluted by 5 times for 8 concentrations with a discharge gun, ie., dilution from 50 μM to 0.65 nM, with a DMSO concentration of 5%, and replicated. 1 μL of each concentration gradient of the inhibitor, 2 μL CDK9/CyclinT1 enzyme (4 ng), 2 μL of a mixture of substrate and ATP (100 μM adenosine triphosphate, 0.2 μg/μL substrate) was added to the microplate, and the final concentration gradient of the compound was 10 μM dilution to 0.13 nM. The reaction system was placed at 25° C. for 120 minutes. After the reaction, 5 μL of ADP-Glo reagent was added to each well, and the reaction was allowed to continue at 25° C. for 40 minutes. After the reaction, 10 μL of kinase detection reagent was added to each well. After reacting at 25° C. for 30 minutes, a multi-label analyzer was used to read chemiluminescence. The integration time was 0.5 seconds.
Table 1 provides the enzymatic inhibitory activity of the compounds of the present invention on CDK9/CyclinT1.

Where a name gives a salt, the structure may show the parent alone.

T1 sequence (P06493 whole entry): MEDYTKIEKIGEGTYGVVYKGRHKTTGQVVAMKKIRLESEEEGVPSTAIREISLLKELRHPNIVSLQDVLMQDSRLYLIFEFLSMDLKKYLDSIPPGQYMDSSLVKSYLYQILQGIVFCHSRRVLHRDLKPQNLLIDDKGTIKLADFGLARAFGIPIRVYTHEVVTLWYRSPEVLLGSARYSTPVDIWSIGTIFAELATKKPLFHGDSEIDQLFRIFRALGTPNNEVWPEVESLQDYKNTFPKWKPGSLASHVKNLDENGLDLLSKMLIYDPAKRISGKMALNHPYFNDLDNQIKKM
T1 sequence (P14635 whole entry partner): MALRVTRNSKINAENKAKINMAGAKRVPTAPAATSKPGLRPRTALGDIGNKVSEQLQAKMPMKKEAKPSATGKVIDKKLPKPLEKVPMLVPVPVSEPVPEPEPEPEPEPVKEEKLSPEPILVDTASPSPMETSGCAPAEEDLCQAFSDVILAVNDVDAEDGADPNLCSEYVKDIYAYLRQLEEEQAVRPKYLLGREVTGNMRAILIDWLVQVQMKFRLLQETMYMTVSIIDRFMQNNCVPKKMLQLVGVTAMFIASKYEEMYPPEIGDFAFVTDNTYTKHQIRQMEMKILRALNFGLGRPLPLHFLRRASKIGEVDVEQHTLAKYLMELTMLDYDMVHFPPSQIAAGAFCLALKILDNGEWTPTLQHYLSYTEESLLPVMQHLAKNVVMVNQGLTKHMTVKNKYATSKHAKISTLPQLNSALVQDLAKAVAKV
T3 sequence (P50750 whole entry): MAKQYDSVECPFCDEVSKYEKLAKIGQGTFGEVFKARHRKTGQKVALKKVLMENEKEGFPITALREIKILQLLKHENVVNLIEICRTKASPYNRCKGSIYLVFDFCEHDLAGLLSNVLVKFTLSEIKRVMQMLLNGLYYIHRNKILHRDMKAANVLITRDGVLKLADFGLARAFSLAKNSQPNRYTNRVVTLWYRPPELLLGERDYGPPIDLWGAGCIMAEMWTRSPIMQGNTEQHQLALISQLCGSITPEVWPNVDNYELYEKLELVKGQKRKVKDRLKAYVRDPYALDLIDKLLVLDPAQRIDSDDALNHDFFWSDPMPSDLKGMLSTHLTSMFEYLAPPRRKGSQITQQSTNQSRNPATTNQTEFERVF
T3 sequence (O60563 whole entry partner): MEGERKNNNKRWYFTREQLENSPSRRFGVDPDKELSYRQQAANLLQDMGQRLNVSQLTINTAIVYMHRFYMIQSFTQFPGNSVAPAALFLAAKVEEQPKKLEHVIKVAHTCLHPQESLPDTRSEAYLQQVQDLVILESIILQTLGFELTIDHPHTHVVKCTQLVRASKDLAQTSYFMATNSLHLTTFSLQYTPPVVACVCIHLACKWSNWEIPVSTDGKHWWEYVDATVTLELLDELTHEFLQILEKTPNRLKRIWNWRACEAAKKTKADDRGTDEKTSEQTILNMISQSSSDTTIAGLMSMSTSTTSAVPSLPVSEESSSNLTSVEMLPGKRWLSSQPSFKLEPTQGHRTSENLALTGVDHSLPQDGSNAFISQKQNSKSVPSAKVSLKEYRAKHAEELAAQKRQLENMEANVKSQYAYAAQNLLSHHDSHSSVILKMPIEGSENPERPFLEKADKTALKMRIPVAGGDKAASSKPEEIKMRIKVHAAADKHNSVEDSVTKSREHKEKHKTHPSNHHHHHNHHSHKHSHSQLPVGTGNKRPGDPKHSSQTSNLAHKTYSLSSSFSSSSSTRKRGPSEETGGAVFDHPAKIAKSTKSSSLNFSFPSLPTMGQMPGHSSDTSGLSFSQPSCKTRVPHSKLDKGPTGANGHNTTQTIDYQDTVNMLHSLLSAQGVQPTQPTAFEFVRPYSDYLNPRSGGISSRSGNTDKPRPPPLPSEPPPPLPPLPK

Turning to `CC(=O)N[C@@H]1CCC[C@H](C(=O)Nc2cc(-c3cnn4c3CC(C)(C)C4)c(Cl)cn2)C1` [AZD4573], the IC50 against CDK1/CyclinB1 turned out to be 0.002 µM. Besides, in data set [1], the “Animals' Drug Tolerance” value is listed as “Well”, the “Tumor Volume Day 0” value was 110 mm^3, the “Tumor Volume Day 7” value is listed as 173 mm^3 and the “Tumor Volume Day 17” value turned out to be 262 mm^3. In addition, the “Tumor Volume Day 28” value in data set [1] stood at 975 mm^3. Also, in data set [2], the “metabolism (in words)” value is given as “not good”. At CDK2/CyclinE1, this compound yielded a 50% inhibitory concentration (IC50) of 0.001 µM.

Compound `COc1cc(F)ccc1-c1cc(Nc2cc(CS(C)(=N)=O)ccn2)ncc1F` (stereo not shown) [BAY1251152] yielded an IC50 against CDK1/CyclinB1 of 0.3 µM. In addition, in data set [3], the “clinically most important grade 3/4 and dose-limiting adverse side effect” value was “neutropenia”. Moreover, in data set [1], the “Animals' Drug Tolerance” value is recorded as 5/6 mouse, the “Tumor Volume Day 0” value is 110 mm^3, the “Tumor Volume Day 7” value is reported as 107 mm^3 and the “Tumor Volume Day 17” value is recorded as 83 mm^3. The “Tumor Volume Day 28” value in data set [1] is recorded as 426 mm^3. The same compound yielded an IC50 with MV-4-11 cells of 0.0282 µM. Moreover, at CDK2/CyclinE1, the half-maximal inhibitory concentration (IC50) is 0.193 µM.

As for `Clc1cnc2[nH]c(C3CCNCC3)cc2c1-c1cnn(CC2CC2)c1` [Compound 1 (hydrochloride)], in data set [4], the “Animals' Drug Tolerance” value is “Well”, the “Tumor Volume Day 0” value amounted to 121 mm^3, the “Tumor Volume Day 7” value was determined as 121 mm^3 and the “Tumor Volume Day 17” value came to 151 mm^3. Besides, the “Tumor Volume Day 28” value in data set [4] was 419 mm^3. In addition, 0.0887 µM corresponded to half-maximal inhibition on CDK1/CyclinB1 (IC50). In data set [1], the “Animals' Drug Tolerance” value was “Well”, the “Tumor Volume Day 0” value is 110 mm^3, the “Tumor Volume Day 7” value is recorded as 109 mm^3 and the “Tumor Volume Day 17” value was 42 mm^3. For the same compound, the “Tumor Volume Day 28” value in data set [1] stood at 107 mm^3. Besides, in the data set with MV-4-11 cells, the IC50 came to 0.0147 µM. Moreover, the concentration for half-maximal inhibition (IC50) against CDK9/CyclinT1 is 0.0077 µM. Moreover, at CDK2/CyclinE1, the IC50 was 0.112 µM.

On to `Cn1cc(-c2c(Cl)cnc3[nH]c(C4CCNCC4)cc23)cn1` [Compound 15 (hydrochloride)], for which, in data set [4], the “Animals' Drug Tolerance” value is on record as “Well”, the “Tumor Volume Day 0” value worked out at 121 mm^3, the “Tumor Volume Day 7” value is listed as 87 mm^3 and the “Tumor Volume Day 17” value is recorded as 74 mm^3. The “Tumor Volume Day 28” value in data set [4] came out at 332 mm^3. Also, on CDK1/CyclinB1, the concentration for half-maximal inhibition (IC50) stood at 0.824 µM. Besides, the IC50 in the data set with MV-4-11 cells was 0.0345 µM. Besides, on CDK9/CyclinT1, the IC50 amounted to 0.0043 µM. The compound also displayed a half-maximal inhibitory concentration (IC50) at CDK2/CyclinE1 of 0.685 µM.

As a reminder, the IC50 is the concentration needed to halve the response being measured. A lower IC50 goes with higher potency.
